In PubChem BioAssay (NCI):
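Five concentrations, 48 hours, 96-well plates. At the GI50, growth is halved. TGI: total growth inhibition.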

Columns and labels:
Assay in all cases: DTP human tumour cell line panel, 48 h
CAKI-1 renal = test system: CAKI-1 renal
PC-3 prostate = test system: PC-3 prostate
HCT-116 colon = test system: HCT-116 colon
SK-MEL-5 melanoma = test system: SK-MEL-5 melanoma
M14 melanoma = test system: M14 melanoma
OVCAR-3 ovarian = test system: OVCAR-3 ovarian
KM12 colon = test system: KM12 colon
MDA-MB-231 breast = test system: MDA-MB-231 breast
T-47D breast = test system: T-47D breast
NCI-H460 lung = test system: NCI-H460 lung

SMILES | TGI (CAKI-1 renal) [µM] | TGI (PC-3 prostate) [µM] | TGI (HCT-116 colon) [µM] | TGI (SK-MEL-5 melanoma) [µM] | TGI (M14 melanoma) [µM] | TGI (OVCAR-3 ovarian) [µM] | TGI (KM12 colon) [µM] | TGI (MDA-MB-231 breast) [µM] | TGI (T-47D breast) [µM] | TGI (NCI-H460 lung) [µM] | GI50 (CAKI-1 renal) [µM] | GI50 (PC-3 prostate) [µM] | GI50 (HCT-116 colon) [µM] | GI50 (SK-MEL-5 melanoma) [µM] | GI50 (M14 melanoma) [µM] | GI50 (OVCAR-3 ovarian) [µM] | GI50 (KM12 colon) [µM] | GI50 (MDA-MB-231 breast) [µM] | GI50 (T-47D breast) [µM] | GI50 (NCI-H460 lung) [µM]
CC(NNC(=S)N1CCN(c2ccccn2)CC1)c1nccc2ccccc12 (stereo not given) | 10.3 | 14.9 | 9.29 | 12.3 | 2.46 | 13.2 | 19 | 16.8 | 16.9 | 11.3 |  |  |  |  |  |  |  |  |  | 
CC(=O)OC1CC2(C)C(=CC1C1SCCS1)CCC1C2CCC2(C)C(OC(C)=O)CCC12 (stereo not given) | > 100 | > 100 | > 100 | > 100 | > 100 | > 100 | > 100 | > 100 | > 100 | > 100 |  |  |  |  |  |  |  |  |  | 
COc1c(C(N)=O)cc(-c2ccc(Cl)cc2)cc1-c1ccc(S(N)(=O)=O)cc1 | > 25 | 24.8 | > 25 | > 25 | > 25 | > 25 | > 25 | 24.2 | > 25 | > 25 | 10.9 | 7.08 | 12.4 | 7.4 | > 17.2 | 9.79 | 11 | 10.3 | 9.71 | 11.5
CC(C)[C@@H](C(=O)O[C@@H]1/C=C/C(=O)O[C@@H](C)CCC/C=C/[C@@H]2C[C@H](O)C[C@H]21)N(C)C | 42.8 | 61.6 | 64.4 | 5.37 | 63.2 | 26.7 | 10.2 | 63.2 | > 100 | > 76.3 | 11.9 | 6.77 | 22.3 | 2.25 | 15.2 | 6.34 | 2.91 | 20.2 | 30 | 24.7
COC(=O)Nc1nc2ccc(C(=O)c3cccc(I)c3)cc2[nH]1 | 11.2 | 6.18 | 13.8 | 2.31 | 20.7 | 0.207 | 5.7 | 5.52 | > 100 | 4.33 | 0.0538 | 0.0457 | 0.0402 | 0.068 | 0.072 | 0.0332 | 0.0418 | 0.166 | 16.5 | 0.0407
CCN1CCN(C(=O)[C@]23CC[C@@H](C)[C@H](C)[C@@H]2C2=CC[C@@H]4[C@@]5(C)CCC(=O)C(C)(C)[C@@H]5CC[C@@]4(C)[C@]2(C)CC3)CC1 | 2.96 | 3.17 | 1.57 | 1.6 | 1.61 | 2.44 | 2.22 | 1.5 | 3.89 | 1.75 | 0.946 | 0.875 | 0.798 | 0.888 | 0.794 | 1.1 | 1.03 | 0.779 | 1.33 | 0.93
Cc1ccc2ccccc2c1CSc1nc(N)nc2c1ncn2CC(C)C | > 48.9 | > 89.9 | > 100 | 20.3 | > 80.8 | > 100 | > 100 | > 100 | > 47.8 | > 96.2 |  |  |  |  |  |  |  |  |  | 
Cc1nnc(N/N=C/c2ccc([N+](=O)[O-])o2)[nH]c1=O | > 100 | > 100 | > 100 | 3.3 | > 100 | 3.18 | > 100 | > 24.5 | 13.8 | 14.6 | 1.79 | 0.512 | 0.57 | 0.84 | 2.89 | 0.429 | 0.575 | 1.26 | 1.07 | 3.19
O=C(Nc1cccc([N+](=O)[O-])c1)c1cccc(C(=O)Nc2cccc([N+](=O)[O-])c2)c1 | > 100 | > 100 | > 100 | > 100 | > 100 | > 100 | > 100 | > 100 | > 100 | > 100 | > 100 | > 100 | 41.9 | > 100 | > 100 | > 100 | > 100 | 12.1 | 56.9 | > 61.9
CCC(=O)OCOc1ccc(/C=C2\CCC(CN(C)C)C2=O)cc1 (stereo not given) | 11.5 | 27.6 | 18.2 | 26.6 | 9.23 | 8.29 | 13 | > 19.9 | 9 | 32.7 |  |  |  |  |  |  |  |  |  | 
COC(=O)CC[C@@H](C)[C@H]1CC[C@H]2[C@@H]3CC[C@@H]4C[C@H](O)CC[C@]4(C)[C@H]3CC[C@]12C | 34.1 | 32.2 | 31.8 | 31 | 35.8 | 35 | 34.5 | 34.2 | 36 | 39.9 |  |  |  |  |  |  |  |  |  | 
Cc1cc(N(CCC#N)S(=O)(=O)c2ccccc2)ccc1C=Nc1ccc(C(=O)O)cc1 | 5.73 | > 100 | 14.7 | 24.3 | 21.8 | 21.5 | 42.6 | > 100 | > 100 | 29.9 |  |  |  |  |  |  |  |  |  | 
CC1=CC(C)=N/C(=N/S(=O)(=O)c2cc(C)c(Cl)cc2SCc2ccccc2)NN1 | > 100 | > 100 | > 100 | > 100 | > 100 | > 100 | > 100 | > 100 | > 100 | > 100 | > 100 | > 100 | > 100 | > 100 | > 100 | > 100 | > 100 | > 100 | > 100 | > 100
COc1cc2c(cc1OC)C(Cl)C(c1ccc(Br)cc1)=C2Cl (stereo not given) | 32 | 21.6 | 22.7 | 28.6 | 23.3 | 24.1 | 34.6 | 21.6 | 15.1 | 25.8 |  |  |  |  |  |  |  |  |  | 
CC1=C(CCC(C)CO)O[C@H]2C[C@H]3[C@@H]4CC[C@H]5C[C@@H](O)CC[C@]5(C)[C@H]4CC(=O)[C@]3(C)[C@@H]12 (stereo not given in full) | 86.3 | 21.2 | 47.7 | 23.5 | 27 | > 60.9 | 30.4 | 47.3 | 29.2 | 21.8 |  |  |  |  |  |  |  |  |  | 
